Measured values reported in PMC3949714 (PLoS ONE, 2014).
Where two headings read alike, the source gives them in different places. Where no end group is shown, it is not given here.

Columns and labels:
[1] = RP-HPLC retention time (read by the paper as polarity); type: physicochemical; settings: water/acetonitrile gradient with 0.1% formic acid, MS TIC detection
Description: An Agilent binary HPLC composing of an Agilent 1100 LC pump, an Agilent 1100 well plate auto-sampler (Agilent Technologies, Santa Clara, CA, USA) and a Jupiter 5 μ (C4, 300 A, 150×2.00 mm, 5 μ) RP HPLC column (Phenomenex, Torrance, CA, USA) were used for separation. The mobile phase flow rate was 200 µl/min and the volume of injection was 20 µL. The separations were performed using a binary solvent gradient; water (Milli-Q; Millipore Corporation, Bedford, MA) which contained 0.1% v/v formic acid was used as the solvent A and acetonitrile (Merck KGaA, Darmstadt, Germany) which contained 0.1% v/v formic acid (Nuplex industries Pty Ltd. (NSW, Australia) was used as the solvent B. The chromatographic separation was achieved using the gradient shown in Table 1.
An API 3000 tandem mass spectrometer equipped with a turbo ion spray was used as the detector. Detection was performed in total ion current (TIC) mode (MS1/Q1), in positive mode, within the range 200–3000 amu. The data were acquired and processed by Analyst 1.5 software (Applied Biosystems, Foster city, CA, USA). Mass spectra were obtained using: declustering potential (DF) of 16 V, focusing potential (FP) of 120 V, Entrance potential (EP) of 10 V, and Ion spray voltage (IS) of 5000 V. Structure identity of fragments was performed using the respective mass/charge (m/z) values of each peptide metabolite. Direct flow injections were carried out using Model 11 plus Harvard Syringe pump (Harvard Apparatus Inc, Holliston, MA, USA).

[2] = Biotransformation in homogenised inflamed tissue at pH 5.5 (LC/MS, mean residence time); settings: for MRT: 120 min, AUMC/AUC of LC/MS peak intensity
[3] = molecular target: T1, mu-opioid receptors (MOR) (Mus musculus, UniProt P42866); assay: cell-based; type: cell-based, murine
T1 construct: FLAG; expressed in transfected cells

[4] = molecular target: T2, delta-opioid receptors (DOR); type: cell-based; settings: read-out: IC50 for the inhibition of forskolin induced cAMP in HEK-DOP cells
T2 construct: expressed in transfected cells

[5] = incubation of BE 1-17, Jupiter C4 column
[6] = incubation of BE 1-31, Jupiter C4 300 A column, 200 µl/min
[7] = incubation of BE 1-17 (115 µM) in rat inflamed tissue homogenate, MES pH 5.5, 37°C
[8] = incubation of BE 1-31 (115 µM) in rat inflamed tissue homogenate, MES pH 5.5, 37°C
[9] = incubation of BE 1-13, Jupiter C4 column
[10] = incubation of BE 1-13 (115 µM) in rat inflamed tissue homogenate, MES pH 5.5, 37°C
[11] = rat inflamed tissue homogenate, MES pH 5.5, 37°C, 115 µM peptide, LC/MS

T1 sequence (P42866 whole entry): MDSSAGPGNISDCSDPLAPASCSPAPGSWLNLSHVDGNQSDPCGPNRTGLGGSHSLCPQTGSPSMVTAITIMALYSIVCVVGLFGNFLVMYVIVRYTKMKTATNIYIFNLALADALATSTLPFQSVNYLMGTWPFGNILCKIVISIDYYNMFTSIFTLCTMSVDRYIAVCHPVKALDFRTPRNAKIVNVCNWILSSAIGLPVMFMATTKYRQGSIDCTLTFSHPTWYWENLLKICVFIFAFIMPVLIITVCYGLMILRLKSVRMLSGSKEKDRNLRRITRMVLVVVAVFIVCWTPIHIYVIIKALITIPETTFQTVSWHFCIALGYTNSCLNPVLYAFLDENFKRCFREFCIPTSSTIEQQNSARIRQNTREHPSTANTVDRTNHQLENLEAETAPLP

Row | Sequence | RT [1, 5] [min] | RT [1, 6] [min] | MRT [2, 7] | MRT [2, 8] | Agonist character at MOR (extent of cAMP inhibition) [3] | Rt ([1]; incubation of BE 1-11, Jupiter C4 column) [min] | Rt [1, 9] [min] | IC50 [4] [nM] | MRT ([2]; incubation of BE 1-11 (115 µM) in rat inflamed tissue homogenate, MES pH 5.5, 37°C) | MRT [2, 10] | Incubation period after which the peptide was undetectable [2, 11] [min] | Effect of naloxone pre-treatment on cAMP inhibition through MOR [3] | Rt ([1]; incubation of BE 1-13, Jupiter C4 column, listed as BE 1-13) [min] | RT ([1]; incubation of BE 1-17, Jupiter C4 column, listed as BE 1-13) [min] | Time present as metabolite within inflamed tissue homogenates ([2]; formed during incubation of BE 1–31, pH 5.5, 37°C) | Time for which the peptide was detected in inflamed tissue homogenates [2, 11] [min] | RT ([1]; incubation of BE 1-17, Jupiter C4 column, listed as BE 1-17) [min] | IC50 ([3]; read-out: IC50 for the inhibition of forskolin induced cAMP in HEK-MOP cells) [nM] | Peak intensity observed (remaining) at 15 min ([2]; rat inflamed paw tissue homogenate (1 g/10 ml MES buffer) pH 5.5, 37°C, 115 µM peptide, LC/MS) [%] | IC50 [3] [nM]
1 | YGGFMTSEK [BE 1–9] | 18.13 | 20.2 | 28 | 11.4 | partial agonist |  |  |  |  |  |  |  |  |  |  |  |  |  |  | 
2 | YGGFMTSEKSQ [BE 1–11] | 17.58 | 19.96 | 17.2 | 57.8 |  | 17.4 | 17.4 | 18 | 11 | 10.5 | 30 | inhibited by naloxone |  |  |  |  |  |  |  | 
3 | YGGFMTSEKSQTP [BE 1–13] | 18.6 | 20.9 | 21.7 | 44 |  |  | 18.4 | 59 |  | 8.3 |  | inhibited by naloxone | 18.5 | 18.78 | over 1 hour | 30 |  |  |  | 
4 | YGGFMTSEKSQTPLVTL [BE 1–17] | 24.5 | 24.5 | 5.6 | 25 |  |  |  | 25 |  |  | 15 | inhibited by naloxone |  |  |  |  | 24.3 |  |  | 
5 | YGGFMTSEKSQTPLVTLFKN [BE 1–20] |  | 25.2 |  | 34.2 |  |  |  | 55 |  |  |  | inhibited by naloxone |  |  |  |  |  | 5 |  | 
6 | YGGFMTSEKSQTPLVTLFKNAIIKNVHKKGQ [BE 1–31, Beta-endorphin] |  | 25.8 |  | 2.9 |  |  |  | 57 |  |  |  | inhibited by naloxone |  |  |  |  |  |  | 7.5 | 24
